This assay has as its target T1, human Glycogen Synthase Kinase-3 beta (hGSK-3β) (Homo sapiens, UniProt P49841).
T1 construct: purchased Upstate cell signaling solutions
The assay can be described thus: Biochemical hGSK-3beta assay (33P-ATP phosphorylation of biotinylated peptide substrate). To be noted: 10 μM ATP, 30 minutes at room temperature; read-out: GSK-3β IC50. On the procedure:
Methods—Biochemical hGSK-3beta Assay
Compounds were tested for their ability to inhibit human Glycogen Synthase Kinase-3 beta (hGSK-3β) to phosphorylate biotin-[…](pS)EDEEE. Compounds were incubated with 0.5 μCi 33P-ATP, 10 μM ATP, 0.0125U hGSK-3β (Upstate cell signaling solutions) and 1 μM substrate (biotin-[…](pS)EDEEE) in 50 mM HEPES, 10 mM MgCl2, […], 1 mM DTT, 0.0075% Triton, 2% DMSO (total volume 50 μL) for 30 minutes at room temperature. The incubation was stopped by addition of an equal volume of 100 mM EDTA, 4M NaCl. 80 μL of this mixture was added to streptavidin-coated Flashplates (PerkinElmer). Following a wash step, 33P incorporation was quantified on a MicroBeta microplate liquid scintillation counter (PerkinElmer). IC50's were determined by fitting a sigmoidal dose-response curve to the counts obtained at the different concentrations in GraphPad Prism.
T1 sequence (P49841 whole entry): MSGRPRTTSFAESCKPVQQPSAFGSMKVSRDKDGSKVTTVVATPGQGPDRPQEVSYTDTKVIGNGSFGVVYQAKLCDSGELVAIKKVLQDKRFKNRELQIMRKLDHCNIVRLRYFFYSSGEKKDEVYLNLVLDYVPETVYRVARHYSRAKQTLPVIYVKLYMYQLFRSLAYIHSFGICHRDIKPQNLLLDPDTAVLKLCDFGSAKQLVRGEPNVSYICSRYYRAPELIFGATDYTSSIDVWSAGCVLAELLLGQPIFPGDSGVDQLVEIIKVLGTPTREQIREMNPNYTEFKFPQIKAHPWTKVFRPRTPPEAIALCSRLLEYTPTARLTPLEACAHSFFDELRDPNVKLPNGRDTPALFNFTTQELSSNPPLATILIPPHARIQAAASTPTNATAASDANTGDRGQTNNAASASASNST
As a reminder, the IC50 is the concentration that inhibits the measured activity by half. Regarding `N#Cc1ccc2[nH]c(O)c(-c3ccc(CN4CC[C@H]5CNC[C@H]54)cn3)c2c1` (stereo in doubt) [Example 5, 3-(5-(((3aS,6aS)-Hexahydropyrrolo[3,4-b]pyrrol-1(2H)-yl)methyl)-pyridin-2-yl)-2-hydroxy-1H-indole-5-carbonitrile], the IC50 is < 100 nM. Turning to `N#Cc1ccc2[nH]c(O)c(-c3ccc(CN4CC5COCC5C4)cn3)c2c1` (stereo not drawn) [Example 1, 3-(5-((Dihydro-1H-furo[3,4-c]pyrrol-5(3H,6H,6aH)-yl)methyl)pyridin-2-yl)-2-hydroxy-1H-indole-5-carbonitrile], the IC50 is < 100 nM. With `Oc1[nH]c2ncccc2c1-c1ccc(CN2CCOCC2)cn1` [Example 2, 3-(5-(Morpholinomethyl)-pyridin-2-yl)-1H-pyrrolo[2,3-b]pyridin-2-ol], the half-inhibitory concentration (IC50) lay within 10000 to 100000 nM.

As to `Oc1[nH]c2cnccc2c1-c1ccc(CN2CCOCC2)cn1` [Example 3, 3-(5-(Morpholinomethyl)-pyridin-2-yl)-1H-pyrrolo[2,3-c]pyridin-2-ol], the IC50 fell in the range of 100 to 10000 nM.

On to `Oc1[nH]c2ccc(Br)nc2c1-c1ccc(CN2CCOCC2)cn1` [Example 4, 5-Bromo-3-(5-(morpholinomethyl)-pyridin-2-yl)-1H-pyrrolo[3,2-b]pyridin-2-ol], for which the IC50 was < 100 nM. As for `[O-][n+]1cc(CN2CCOCC2)ccc1-c1c(O)[nH]c2ccc(Br)nc12` [Example 4.1, 2-(5-Bromo-2-hydroxy-1H-pyrrolo[3,2-b]pyridin-3-yl)-5-(morpholinomethyl)-pyridine 1-oxide], the IC50 fell in the range of 100 to 10000 nM.

The record behind these values is patent US8318793B2, “Heterocyclic compounds and their use as glycogen synthase kinase-3 inhibitors” (Abbott GmbH & Co. KG, priority 2009, dated 2012).
